Series [1] relates to M. tuberculosis in THP-1 macrophage. It counts as cell-based, Mycobacterium tuberculosis.
The test system of another series is THP-1 macrophages. Put plainly: Cytotoxic effect on THP-1 macrophages, fluorescence microscopy after DAPI staining. It counts as cell-based, Human. To be noted: 100 µM; images after 10th day of inhibitor treatment; compared with untreated control. The procedure:
THP-1 macrophage cells were grown on cover slip in 8 well microplates and washed twice with chilled methanol followed by staining with 4', 6-diamidino-2-phenylindole (DAPI) at final concentration of 300 nM. Macrophage cells were kept for 15 min at room temperature under dark condition. After incubation, cells were washed three times with distilled water and analyzed under the fluorescence microscope (Leitz Wetzlar model, Germany) at 350 nm excitation and 450 nm emission wavelengths (400 X) using 'A'filter.
To investigate the host THP-1 macrophage cells condition due to its exposure to p-HMB inhibitor before considering its effective and specific inhibition of bacilli in macrophage infection models, fluorescence microscopic picture of THP-1 cells treated with p-HMB (100 µM) was compared with the untreated control after staining with DAPI(4',6-diamidino-2-phenylindole). Fluorescence images were taken after 10th day of inhibitor treatment.

The test system of series [2] is Mycobacterium tuberculosis.

Three compounds from EP2961847B1, “NITRITE-REDUCTASE (NIRB) AS POTENTIAL ANTI-TUBERCULAR TARGET AND A METHOD TO DETECT THE SEVERITY OF TUBERCULOSIS DISEASE” (priority 2013, dated 2014) can be followed below.

Where two headings read alike, the source gives them in different places.

Take `CS(=N)(=O)CC[C@H](N)C(=O)O` (stereo partly drawn) [L-MSO, L-methionine sulfoximine]: in series [1], the “decrease in intracellular viable cell count (log difference compared to control)” value (“decrease … (log difference compared to control)” for short) is about 2.5 log.
On to `[N-]=[N+]=[N-]` [Azide], for which the “decrease … (log difference compared to control)” value in series [1] is recorded as about 1.5 log.
On to `O=C(O)c1cc[c]([Hg][OH])cc1` [p-HMB, para-hydroxy mercuric benzoate], for which the “cytotoxic effect on macrophage (integrity of nuclear structure)” value with THP-1 macrophages is “without exhibiting any cytotoxic effects on macrophage”. The “decrease … (log difference compared to control)” value in series [1] ([…], cell counts on 10th day PI, control without inhibitor) was about 2 log. Moreover, in series [1] (summary statement: in-vitro and ex-vivo conditions), the “reduction of bacilli count” value is about 2 log cfu. Further, in series [2], the “cell count reduced (log difference)” value is on record as about 2.5 log and the “inhibition of bacilli grown under ammonia” value was “no inhibition was observed”.
